Results on 21 compounds are retold here after patent publication US12404283B2, “c-MYC mRNA translation modulators and uses thereof in the treatment of cancer” (Anima Biotech Inc., priority 2022, dated 2025).

The experiment concerns c-Myc. Put plainly: c-Myc immunofluorescence assay. As to conditions: A549 cells, 24 hours treatment, anti-c-Myc immunofluorescence. Format: cell-based, human. In a few lines: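 High-content imaging (20×) of PFA-fixed A549 cells immunostained for c-Myc with DAPI nuclei, after 24 h compound treatment at increasing concentrations. Per-cell c-Myc signal in identified cell regions was plotted against dose and fitted by logistic regression to give EC50.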

Regarding `O=C(NCCCN1CCCCC1)c1ccc2c(c1)sc1nc(-c3ccc([C@@H]4CCCN4)cc3F)cn12` [compound 418, (S)-2-(2-fluoro-4-(pyrrolidin-2-yl)phenyl)-N-(3-(piperidin-1-yl)propyl)benzo[d]imidazo [2,1-b]thiazole-7-carboxamide], the “Myc Efficacy (−LogEC50)” value is on record as “+++ (+++ ≥6)”.

In the case of `O=C(NCCCN1CCC(F)CC1)c1ccc2c(c1)sc1nc(-c3ccc([C@H]4CCCN4)cc3F)cn12` [compound 419, (R)-2-(2-fluoro-4-(pyrrolidin-2-yl)phenyl)-N-(3-(4-fluoropiperidin-1-yl)propyl)benzo[d]imidazo [2,1-b]thiazole-7-carboxamide], the “Myc Efficacy (−LogEC50)” value was “+++ (+++ ≥6)”.

Regarding `O=C(NCCCN1CCC(F)CC1)c1ccc2c(c1)sc1nc(-c3ccc([C@@H]4CCCN4)cc3F)cn12` [compound 420, (S)-2-(2-fluoro-4-(pyrrolidin-2-yl)phenyl)-N-(3-(4-fluoropiperidin-1-yl)propyl)benzo[d]imidazo [2,1-b]thiazole-7-carboxamide], the “Myc Efficacy (−LogEC50)” value is given as “+++ (+++ ≥6)”.

With `O=C(NCCCN1CCCCC1)c1ccc2c(c1)sc1nc(-c3ccc([C@H]4CCCN4)cc3F)nn12` [compound 421, (R)-2-(2-fluoro-4-(pyrrolidin-2-yl)phenyl)-N-(3-(piperidin-1-yl)propyl)benzo[4,5]thiazolo [3,2-b][1,2,4]triazole-6-carboxamide], the “Myc Efficacy (−LogEC50)” value was “++ (++ ≥5 and <6)”.

In the case of `O=C(NCCCN1CCCCC1)c1ccc2c(c1)sc1nc(-c3ccc([C@@H]4CCCN4)cc3F)nn12` [compound 422, (S)-2-(2-fluoro-4-(pyrrolidin-2-yl)phenyl)-N-(3-(piperidin-1-yl)propyl)benzo[4,5]thiazolo [3,2-b][1,2,4]triazole-6-carboxamide], the “Myc Efficacy (−LogEC50)” value is reported as “+++ (+++ ≥6)”.

On to `O=C(NCCCN1CCC(F)CC1)c1ccc2c(c1)sc1nc(-c3ccc(C4(O)COC4)cc3F)cn12` [compound 425], for which the “Myc Efficacy (−LogEC50)” value is on record as “+++ (+++ ≥6)”.

`O=C(NCCCN1CCC(F)CC1)c1ccc2c(c1)sc1nc(-c3cc4c(cc3F)CNC4)cn12` [compound 454, 2-(6-fluoroisoindolin-5-yl)-N-(3-(4-fluoropiperidin-1-yl)propyl)benzo[d]imidazo [2,1-b]thiazole-7-carboxamide]: the “Myc Efficacy (−LogEC50)” value was “+++ (+++ ≥6)”.

As to `O=C(NCCCN1CCC(F)CC1)c1ccc2c(c1)sc1nc(-c3c(F)cc(C4CCCN4)cc3C3CC3)cn12` (stereo not drawn) [compound 475, 2-(2-cyclopropyl-6-fluoro-4-(pyrrolidin-2-yl)phenyl)-N-(3-(4-fluoropiperidin-1-yl)propyl)benzo[d]imidazo[2,1-b]thiazole-7-carboxamide], the “Myc Efficacy (−LogEC50)” value was “++ (++ ≥5 and <6)”.

For `O=C(NCCCN1CCC(F)CC1)c1ccc2c(c1)sc1nc(-c3cc(F)c(C4CCCN4)cc3F)cn12` (stereo not drawn) [compound 477, 2-(2,5-difluoro-4-(pyrrolidin-2-yl)phenyl)-N-(3-(4-fluoropiperidin-1-yl)propyl)benzo[d]imidazo[2,1-b]thiazole-7-carboxamide], the “Myc Efficacy (−LogEC50)” value was “+++ (+++ ≥6)”.

Take `O=C(NCCCN1CCC(F)CC1)c1ccc2c(c1)sc1nc(-c3ccc(-c4ncc[nH]4)cc3F)cn12` [compound 482, 2-(2-fluoro-4-(1H-imidazol-2-yl)phenyl)-N-(3-(4-fluoropiperidin-1-yl)propyl)benzo[d]imidazo[2,1-b]thiazole-7-carboxamide]: the “Myc Efficacy (−LogEC50)” value is listed as “+++ (+++ ≥6)”.

Regarding `O=C(NCCCN1CCC(F)CC1)c1ccc2c(c1)sc1nc(-c3cc(F)c(C4CCCN4)c(Cl)c3)cn12` (stereo not drawn) [compound 485, 2-(3-chloro-5-fluoro-4-(pyrrolidin-2-yl)phenyl)-N-(3-(4-fluoropiperidin-1-yl)propyl)benzo[d]imidazo[2,1-b]thiazole-7-carboxamide], the “Myc Efficacy (−LogEC50)” value is “+++ (+++ ≥6)”.

On to `O=C1CCCC(c2ccc(-c3cn4c(n3)sc3cc(C(=O)NCCCN5CCC(F)CC5)ccc34)c(F)c2)N1` (stereo not drawn) [compound 486], for which the “Myc Efficacy (−LogEC50)” value was “++ (++ ≥5 and <6)”.

Regarding `O=C(NCCCN1CCC(F)CC1)c1ccc2c(c1)sc1nc(-c3ccc(-c4ccn[nH]4)cc3F)cn12` [compound 487, 2-(2-fluoro-4-(1H-pyrazol-5-yl)phenyl)-N-(3-(4-fluoropiperidin-1-yl)propyl)benzo[d]imidazo[2,1-b]thiazole-7-carboxamide], the “Myc Efficacy (−LogEC50)” value was “++ (++ ≥5 and <6)”.

Regarding `COc1cc(-c2cn3c(n2)sc2cc(C(=O)NCCCN4CCC(F)CC4)ccc23)c(F)cc1C1CCCN1` (stereo not drawn) [compound 489, 2-(2-fluoro-5-methoxy-4-(pyrrolidin-2-yl)phenyl)-N-(3-(4-fluoropiperidin-1-yl)propyl)benzo[d]imidazo[2,1-b]thiazole-7-carboxamide], the “Myc Efficacy (−LogEC50)” value is “++ (++ ≥5 and <6)”.

For `Cc1cc(-c2cn3c(n2)sc2cc(C(=O)NCCCN4CCC(F)CC4)ccc23)ccn1` [compound 495, N-(3-(4-fluoropiperidin-1-yl)propyl)-2-(2-methylpyridin-4-yl)benzo[d]imidazo[2,1-b]thiazole-7-carboxamide], the “Myc Efficacy (−LogEC50)” value is listed as “+++ (+++ ≥6)”.

`NC(=O)c1ccc2c(c1)sc1nc(-c3ccc([C@@H]4C[C@H](O)CN4)cc3F)cn12` [compound 520, 2-(2-fluoro-4-((2S,4S)-4-hydroxypyrrolidin-2-yl)phenyl)benzo[d]imidazo[2,1-b]thiazole-7-carboxamide]: the “Myc Efficacy (−LogEC50)” value was “++ (++ ≥5 and <6)”.

Regarding `CNC(=O)c1ccc2c(c1)sc1nc(-c3ccc([C@@H]4C[C@H](O)CN4)cc3F)cn12` [compound 521, 2-(2-fluoro-4-((2S,4S)-4-hydroxypyrrolidin-2-yl)phenyl)-N-methylbenzo[d]imidazo[2,1-b]thiazole-7-carboxamide], the “Myc Efficacy (−LogEC50)” value is recorded as “+++ (+++ ≥6)”.

As for `CN1CC[C@@H](NC(=O)c2ccc3c(c2)sc2nc(-c4ccc([C@@H]5CCCN5)cc4F)cn23)[C@@H](F)C1` [compound 526, N-((3S,4R)-3-fluoro-1-methylpiperidin-4-yl)-2-(2-fluoro-4-(pyrrolidin-2-yl)phenyl)benzo[d]imidazo[2,1-b]thiazole-7-carboxamide], the “Myc Efficacy (−LogEC50)” value is “++ (++ ≥5 and <6)”.

With `CN1CCC(NC(=O)c2ccc3c(c2)sc2nc(-c4ccc(C5CCNCC5)cc4F)cn23)CC1` [compound 527, 2-(2-fluoro-4-(piperidin-4-yl)phenyl)-N-(1-methylpiperidin-4-yl)benzo[d]imidazo[2,1-b]thiazole-7-carboxamide], the “Myc Efficacy (−LogEC50)” value is given as “+++ (+++ ≥6)”.

As for `CN1CCC(NC(=O)c2ccc3c(c2)sc2nc(-c4ccc(C5(O)CCNCC5)cc4F)cn23)CC1` [compound 528, 2-(2-fluoro-4-(4-hydroxypiperidin-4-yl)phenyl)-N-(1-methylpiperidin-4-yl)benzo[d]imidazo[2,1-b]thiazole-7-carboxamide], the “Myc Efficacy (−LogEC50)” value is “+++ (+++ ≥6)”.

For `CN1CCC(NC(=O)c2ccc3c(c2)sc2nc(-c4ccc(C5(O)CCNC5)cc4F)cn23)CC1` (stereo not drawn) [compound 530, 2-(2-fluoro-4-(3-hydroxypyrrolidin-3-yl)phenyl)-N-(1-methylpiperidin-4-yl)benzo[d]imidazo[2,1-b]thiazole-7-carboxamide], the “Myc Efficacy (−LogEC50)” value is “+++ (+++ ≥6)”.
